These are literature values, as cited in patent US12714758B2, “DOTA-hapten compositions for anti-DOTA/anti-tumor antigen bispecific antibody pretargeted radioimmunotherapy” (Memorial Sloan Kettering Cancer Center, priority 2020, dated 2026).

In the series the test system is GD2. Conditions: 24 hours post-injection.

As to “^177Lu-S-2-(4-aminobenzyl)-1,4,7,10-tetraazacyclododecane tetraacetic acid chelate [^177Lu-DOTA-Bn]”, the blood uptake is recorded as 0.49±0.09 % ID/g and the kidney uptake is 0.83±0.10 % ID/g. Further, the tumor uptake (average±SD, n=5) is reported as 10.29±2.87 % ID/g.
